Data published in patent US6497862B2, “Composition for inhibiting body odor and uses thereof” (Kabushiki Kaisha Hayashibara, priority 2000, dated 2002).

Assays:
[1] = Panel test of body-odor-like smell (KAREI-SHU), 9-hexadecanoic acid heated (Experiment 3); design: key: +++: the same or higher level of odor; ++: slightly lower level of odor; +: clearly lower level of odor than that of the control system; details: compared with control system
Description: (§1) Upon the HSG samples, the level of a body-odor-like smell was examined on a panel test consisting of six professional panels; the panels directly smelled the samples from each glass vial and judged the level of the smells for each samples with test saccharides based on the following four ranks, i.e., the same or higher level of odor (+++), slightly lower level of odor (++), clearly lower level of odor (+), and odorless (−) as compared with the control system. Summing up the data from the panels, the samples tested were totally evaluated.
(§2) The content of 2-nonenal in HSG was measured by GC similarly as in Experiment 1 except that 9-hexadecanoic acid or palmitoleic acid was used as a fatty acid and 2-nonenal, a volatile aldehyde, was used as a standard substance. The level of body-odor-like smell, particularly with respect to KAREI-SHU, in each sample was evaluated by panel test in accordance with the method in Experiment 1.

[2] = Panel test of body-odor-like smell (KAREI-SHU), linoleic acid heated (Experiment 2); design: key: +++: the same or higher level of odor; ++: slightly lower level of odor; +: clearly lower level of odor than that of the control system; details: compared with control system
Description: as §1
as §2, with “except that linoleic acid was” for “except that 9-hexadecanoic acid or palmitoleic acid was”, “level of a body-odor-like smell,” for “level of body-odor-like smell,”

[3] = Panel test of body-odor-like smell, oleic acid heated (Experiment 1); design: key: +++: the same or higher level of odor; ++: slightly lower level of odor; +: clearly lower level of odor than that of the control system; details: oleic acid heated at 105° C. for one hour; six panels, compared with control system
Procedure: (§3) One hundred milligrams of oleic acid as a fatty acid, 500 mg of cellulose powder, and 1.25 ml of 0.12 M phosphate buffer (pH 6.0) were placed in a 20-ml glass vial. To the glass vial were added 100 mg of either of crystalline trehalose hydrate, crystalline maltitol anhydride, crystalline sorbitol anhydride, crystalline sucrose anhydride, crystalline maltose anhydride, and crystalline neotrehalose hydride as test saccharides (throughout Experiments 1 to 6, these saccharides are designated as “trehalose”, “maltitol”, sorbitol”, “sucrose”, “maltose”, and “neotrehalose”, respectively), followed by sealing the glass vial with a butyl rubber. As a control system, there provided a glass vial, with no a test saccharide, which differed from the test glass vial on this point. These glass vials were heated at 105° C. for one hour, cooled to ambient temperature, and kept in an aluminum heat-block (abbreviated as “heat block, hereinafter”), which had been preheated to 80° C. After 5-minutes standing, two milliliters of a head space gas (abbreviated as “HSG”, hereinafter) were collected from each glass vial with a syringe.
as §1

[4] = Formation of 2-nonenal from 9-hexadecanoic acid by heating, GC of HSG (Experiment 3); details: 9-hexadecanoic acid + 100 mg test saccharide, heated at 105° C. for one hour; control 25.7
Procedure: as §3
(§4) The collected HSG was analyzed for content of volatile aldehydes on gas chromatography (abbreviated as “GC” hereinafter) using “GAS CHROMATOGRAPH GC-14A”, as a GC apparatus; “CAPILLARY COLUMN SUPELCO-WAX”, having 0.25 mm in inner diameter, 60 m in length, and 0.25 μm in thickness, commercialized by Supelco Inc., Tokyo, Japan, as a column for analysis; helium gas at a flow rate of one ml/min as a carrier gas, under temperature conditions of 250° C. for injecting a sample and of a column thermostatic bath temperature being kept at 80° C. for five minutes and then increased up to 240° C. at a rate of 5° C./min. As standard specimens, propanal, butanal, and hexanal as volatile aldehydes were used. Based on the peak area obtained from gas chromatography for the standard specimens and HSG samples, the content of respective volatile aldehydes in HSG was calculated.
as §2

[5] = Formation of volatile aldehydes from oleic acid by heating, GC analysis of head space gas (Experiment 1); details: oleic acid 100 mg + 100 mg test saccharide, heated at 105° C. for one hour; for Content in HSG, Hexanal: control 0.08; for Content in HSG, Butanal: control 1.04; for Content in HSG, Propanal: control 9.41
Procedure: as §3, §4

[6] = Formation of 2-nonenal from linoleic acid by heating, GC of HSG (Experiment 2); details: linoleic acid + 100 mg test saccharide, heated at 105° C. for one hour; control 5.75
Procedure: as §3, §4
as §2, with “except that linoleic acid was” for “except that 9-hexadecanoic acid or palmitoleic acid was”, “level of a body-odor-like smell,” for “level of body-odor-like smell,”

| SMILES | Evaluation of panel test [1] | Evaluation of panel test [2] | Evaluation of panel test [3] | Content of 2-nonenal in HSG [4] | Content in HSG, Hexanal [5] | Content in HSG, Butanal [5] | Content in HSG, Propanal [5] | Content of 2-nonenal in HSG [6] |
| --- | --- | --- | --- | --- | --- | --- | --- | --- |
| OC[C@H]1O[C@H](O[C@H]2[C@H](O)[C@@H](O)C(O)O[C@@H]2CO)[C@H](O)[C@@H](O)[C@@H]1O (mixture of isomers) [Maltose, maltose] | +++ | +++ | +++ | 24.2 µg/mL | 0.07 µg/mL | 1.38 µg/mL | 9.09 µg/mL | 4.60 µg/mL |
| OC[C@H]1O[C@@H](O[C@H]2O[C@H](CO)[C@@H](O)[C@H](O)[C@H]2O)[C@H](O)[C@@H](O)[C@@H]1O [Neotrehalose, neotrehalose] | +++ | +++ | +++ | 25.7 µg/mL | 0.08 µg/mL | 1.25 µg/mL | 8.89 µg/mL | 5.64 µg/mL |
| OC[C@@H](O)[C@@H](O)[C@H](O)[C@@H](O)CO [Sorbitol, sorbitol] | +++ | +++ | +++ | 23.6 µg/mL | 0.06 µg/mL | 1.06 µg/mL | 8.31 µg/mL | 5.12 µg/mL |
